pKi: −log10 of the molar value. Read-outs that look alike come from different tables or passages of the source.
Legend:
[1] = biological target: VIM-2 (Escherichia coli, UniProt Q5U7L7); assay: Enzymatic assay for determination of inhibition constants, reporter substrate method, purified VIM-2; format: biochemical;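 further: purified VIM-2 hydrolysing a reporter substrate (imipenem, meropenem, cefotaxime or nitrocefin), reaction rate read as absorbance change, HEPES 50 mM at pH 7.5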
Method: (§1) The reaction rate was measured as the variation of absorbance observed upon substrate hydrolysis in a UV-Vis spectrophotometer or microplate reader at a wavelength of 300 nm (imipenem, meropenem), 260 nm (cefotaxime) or 482 nm (nitrocefin) in 50 mM HEPES buffer (pH 7.5) and in the presence of a purified MBL enzyme (such as VIM-1, VIM-2, VIM-4, NDM-1 and IMP-1, at a final concentration ranging 1-70 nM).
(§2) The inhibition constants (Ki) were determined on the basis of a model of competitive inhibition by analyzing the dependence of the ratio v0/vi (v0, hydrolysis velocity in the absence of inhibitor; vi, hydrolysis velocity in the presence of inhibitor) as a function of [I] as already described [Docquier J. D., Lamotte-Brasseur J., Galleni M., Amicosante G., Frère J. M., Rossolini G. M. (2003) J. Antimicrob. […] The slope of the plot of v0/vi vs [I], which corresponds to Km^S/(Km^S+[S])Ki (where Km^S is the Km value of the reporter substrate and [S] its concentration in the reaction mixture) and allowed the calculation of the Ki value. Alternatively, a Dixon plot analysis was carried out, by measuring the initial hydrolysis rates in the presence of variable concentrations of inhibitor and substrate.

[2] = biological target: IMP-1 (Serratia marcescens, UniProt P52699); assay: Enzymatic assay for determination of inhibition constants, reporter substrate method, purified IMP-1; format: biochemical; conditions: for pKi: isolated MBL, competitive inhibition model; for % inhibition IMP-1: at 200 μM (maximal tested concentration);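 on all read-outs here: purified IMP-1 (1-70 nM) hydrolysing a reporter substrate, initial rates followed as absorbance change at 260, 300 or 482 nm in 50 mM HEPES pH 7.5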
Chain of IMP-1 (P52699 19-246, looked up, species assumed): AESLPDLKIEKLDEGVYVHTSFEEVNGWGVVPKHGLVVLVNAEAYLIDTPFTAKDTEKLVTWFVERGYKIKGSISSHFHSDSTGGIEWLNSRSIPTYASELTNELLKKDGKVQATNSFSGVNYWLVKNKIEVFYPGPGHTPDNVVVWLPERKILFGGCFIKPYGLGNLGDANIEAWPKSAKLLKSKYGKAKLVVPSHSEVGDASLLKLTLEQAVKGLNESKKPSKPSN
Method: as §1, §2

[3] = biological target: NDM-1 (Klebsiella pneumoniae, UniProt C7C422); assay: Enzymatic assay for determination of inhibition constants, reporter substrate method, purified NDM-1; format: biochemical; conditions: for pKi: isolated MBL, competitive inhibition model;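 on all read-outs here: purified enzyme activity followed as absorbance change from reporter substrate hydrolysis on a UV-Vis spectrophotometer or plate reader, 50 mM HEPES pH 7.5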
Chain of NDM-1 (C7C422 29-270, looked up, species assumed): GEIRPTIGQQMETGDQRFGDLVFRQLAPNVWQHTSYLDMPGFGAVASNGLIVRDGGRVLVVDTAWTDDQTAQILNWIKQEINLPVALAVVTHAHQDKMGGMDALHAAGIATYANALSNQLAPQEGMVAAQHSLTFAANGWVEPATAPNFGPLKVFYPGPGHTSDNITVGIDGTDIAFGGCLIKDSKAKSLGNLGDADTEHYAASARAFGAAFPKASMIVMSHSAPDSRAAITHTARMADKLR
Method: as §1, §2

[4] = biological target: VIM-1 (Pseudomonas aeruginosa, UniProt A0A0F7KYQ8); assay: Enzymatic assay for determination of inhibition constants, reporter substrate method, purified VIM-1; format: biochemical; conditions: isolated MBL, competitive inhibition model;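 further: initial hydrolysis rates of a reporter β-lactam (imipenem, meropenem, cefotaxime or nitrocefin) followed by absorbance change, purified enzyme at 1–70 nM in 50 mM HEPES pH 7.5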
Method: as §1, §2

[5] = biological target: VIM-4 (Pseudomonas aeruginosa, UniProt Q8KRJ3); assay: Enzymatic assay for determination of inhibition constants, reporter substrate method, purified VIM-4; format: biochemical; conditions: at 100 μM (maximal tested concentration);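 further: purified VIM-4 (1-70 nM) in 50 mM HEPES pH 7.5, reporter substrate hydrolysis rate tracked by absorbance change (nitrocefin 482 nm, imipenem or meropenem 300 nm, cefotaxime 260 nm)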
Method: as §1, §2

[6] = test system: K. pneumoniae SI-001 (blaVIM-1+); assay: Broth microdilution MIC of meropenem in absence and presence of MBL inhibitor, SI-001; format: cell-based; conditions: MBL inhibitor fixed at 32 μg/ml, Mueller-Hinton broth, duplicate
Method: (§3) This method was performed in agreement with the CLSI recommendations (document M07-A10, 2015, “Methods for Dilution Antimicrobial Susceptibility Tests for Bacteria That Grow Aerobically”).
(§4) MIC values of meropenem (MEM) were determined in duplicate in Mueller-Hinton broth as recommended by CLSI (document M07-A10, 2015), in absence and presence of a fixed concentration of MBL inhibitor (32 μg/ml).

[7] = test system: K. pneumoniae S1-002 (blaVIM-4+); assay: Broth microdilution MIC of meropenem in absence and presence of MBL inhibitor, S1-002; format: cell-based; conditions: MBL inhibitor fixed at 32 μg/ml, Mueller-Hinton broth, duplicate
Method: as §3, §4

[8] = isolated MBL, competitive inhibition model, read-out: Ki VIM-2
[9] = at 200 μM (maximal tested concentration)
[10] = at 100 μM (maximal tested concentration)

SMILES | pKi ([1]; as listed in Table 2, read-out: Ki on VIM-2) | pKi [1, 8] | pKi [2] | melting point | pKi [3] | pKi [4] | % inhibition VIM-4 [5] | % inhibition NDM-1 [3, 9] | % inhibition IMP-1 [2] | % inhibition VIM-2 [1, 9] | % inhibition NDM-1 [3, 10] | MIC potentiation of meropenem (x.log2 dilutions), K. pneumoniae SI-001 (blaVIM-1+) [6] | MIC potentiation of meropenem (x.log2 dilutions), K. pneumoniae S1-002 (blaVIM-4+) [7] | % inhibition VIM-2 [1, 10]
O=C(O)c1ccccc1CCn1c(-c2ccccc2)n[nH]c1=S [Compound 1, 2-[2-(3-phenyl-5-sulfanylidene-4,5-dihydro-1H-1,2,4-triazol-4-yl)ethyl]benzoic acid] | > 6.00 | > 6.00 | < 4.00 | 220 to 221 °C | < 4.00 | < 4.00 |  |  |  |  |  |  |  | 
O=C(O)c1ccccc1CCn1c(-c2ccc3ccccc3c2)n[nH]c1=S [Compound 3, 2-{2-[3-(naphthalen-2-yl)-5-sulfanylidene-4,5-dihydro-1H-1,2,4-triazol-4-yl]ethyl}benzoic acid] |  | > 6.00 | 4.00 to 5.00 | 240 to 241 °C |  | < 4.00 | 75% at 100 μM | 60% at 200 μM |  |  |  |  |  | 
O=C(O)c1ccccc1CNn1c(-c2ccc3ccccc3c2)n[nH]c1=S [Compound 16, 2-({[3-(naphthalen-2-yl)-5-sulfanylidene-4,5-dihydro-1H-1,2,4-triazol-4-yl]amino}methyl)benzoic acid] |  | 5.00 to 6.00 | < 4.00 | 213 to 214 °C | < 4.00 | < 4.00 |  |  |  |  |  |  |  | 
O=C(O)CC1(Cn2c(-c3ccccc3)n[nH]c2=S)CCCCC1 [Compound 17, 2-{1-[(3-phenyl-5-sulfanylidene-4,5-dihydro-1H-1,2,4-triazol-4-yl)methyl]cyclohexyl}acetic acid] |  | 5.00 to 6.00 | < 4.00 | 80 to 81 °C | < 4.00 |  | 60% at 100 μM |  |  |  |  |  |  | 
COc1ccc(O)c(-c2n[nH]c(=S)n2CCCC(=O)O)c1 [Compound 18, 4-[3-(2-hydroxy-5-methoxyphenyl)-5-sulfanylidene-4,5-dihydro-1H-1,2,4-triazol-4-yl]butanoic acid] |  | 5.00 to 6.00 | < 4.00 | 155 to 156 °C | < 4.00 | < 4.00 | 90% at 100 μM |  |  |  |  |  |  | 
O=C(O)CCCn1c(-c2ccc3ccccc3c2)n[nH]c1=S [Compound 19, 4-[3-(naphthalen-2-yl)-5-sulfanylidene-4,5-dihydro-1H-1,2,4-triazol-4-yl]butanoic acid] |  | 5.00 to 6.00 | < 4.00 | 220 to 221 °C | < 4.00 | < 4.00 | 75% at 100 μM |  |  |  |  |  |  | 
O=C(O)CC(Cn1c(-c2ccccc2)n[nH]c1=S)c1ccc(Cl)cc1 (stereo not drawn) [Compound 21, 3-(4-chlorophenyl)-4-(3-phenyl-5-sulfanylidene-4,5-dihydro-1H-1,2,4-triazol-4-yl)butanoic acid] |  | 5.00 to 6.00 | < 4.00 | 153 to 154 °C | < 4.00 | < 4.00 | 95% at 100 μM |  |  |  |  |  |  | 
COc1cccc(-c2n[nH]c(=S)n2CCc2ccccc2C(=O)O)c1 [Compound 22, 2-{2-[3-(3-methoxyphenyl)-5-sulfanylidene-4,5-dihydro-1H-1,2,4-triazol-4-yl]ethyl}benzoic acid] |  | > 6.00 | < 4.00 | 197 to 198 °C | < 4.00 |  | 80% at 100 μM |  |  |  |  |  |  | 
Cc1nnsc1-c1n[nH]c(=S)n1CCc1ccccc1C(=O)O [Compound 23, 2-{2-[3-(4-methyl-1,2,3-thiadiazol-5-yl)-5-sulfanylidene-4,5-dihydro-1H-1,2,4-triazol-4-yl]ethyl}benzoic acid] |  | < 4.00 |  | 195 to 196 °C | < 4.00 |  |  |  | 95% at 200 μM |  |  |  |  | 
COc1cccc(-c2n[nH]c(=S)n2CCCC(=O)O)c1 [Compound 24, 4-[3-(3-methoxyphenyl)-5-sulfanylidene-4,5-dihydro-1H-1,2,4-triazol-4-yl]butanoic acid] |  |  | < 4.00 | 159 to 160 °C | < 4.00 |  | 85% at 100 μM |  |  | 70% at 200 μM |  |  |  | 
CC(C)(C)OC(=O)NC(CCCn1c(-c2ccccc2)n[nH]c1=S)C(=O)O (stereo not drawn) [Compound 25, 2-{[(tert-butoxy)carbonyl]amino}-5-(3-phenyl-5-sulfanylidene-4,5-dihydro-1H-1,2,4-triazol-4-yl)pentanoic acid] |  | 5.00 to 6.00 | < 4.00 | 105 to 106 °C | < 4.00 |  | 85% at 100 μM |  |  |  |  |  |  | 
CCCCCCn1c(-c2ccccc2)n[nH]c1=S [Compound 26, 4-hexyl-3-phenyl-4,5-dihydro-1H-1,2,4-triazole-5-thione] |  | 5.00 to 6.00 | < 4.00 | 98 to 99 °C | < 4.00 |  | 85% at 100 μM |  |  |  |  |  |  | 
O=C(O)c1ccccc1CCn1c(-c2ccc(Cl)s2)n[nH]c1=S [Compound 27, 2-{2-[3-(5-chlorothiophen-2-yl)-5-sulfanylidene-4,5-dihydro-1H-1,2,4-triazol-4-yl]ethyl}benzoic acid] |  | 5.00 to 6.00 | < 4.00 | 240 to 241 °C | < 4.00 |  | 85% at 100 μM |  |  |  |  |  |  | 
FC(F)(F)c1cc(SCCn2c(-c3ccccc3)n[nH]c2=S)c2ccccc2n1 [Compound 28, 3-phenyl-4-(2-{[2-(trifluoromethyl)quinolin-4-yl]sulfanyl}ethyl)-4,5-dihydro-1H-1,2,4-triazole-5-thione] |  | < 4.00 | < 4.00 | 184 to 185 °C | 4.00 to 5.00 |  |  |  |  |  |  |  |  | 
COc1ccc(O)c(-c2n[nH]c(=S)n2CCCCC(=O)O)c1 [Compound 29, 5-[3-(2-hydroxy-5-methoxyphenyl)-5-sulfanylidene-4,5-dihydro-1H-1,2,4-triazol-4-yl]pentanoic acid] |  |  | < 4.00 | 155 to 156 °C | < 4.00 |  | 90% at 100 μM |  |  | 60% at 200 μM |  |  |  | 
O=C(O)CCCCn1c(-c2ccc3ccccc3c2)n[nH]c1=S [Compound 30, 5-[3-(naphthalen-2-yl)-5-sulfanylidene-4,5-dihydro-1H-1,2,4-triazol-4-yl]pentanoic acid] |  | 5.00 to 6.00 |  | 170 to 171 °C | < 4.00 |  | 80% at 100 μM |  | 60% at 200 μM |  |  |  |  | 
CCCCn1c(-c2ccccc2)n[nH]c1=S [Compound 32, 4-butyl-3-phenyl-4,5-dihydro-1H-1,2,4-triazole-5-thione] |  | 5.00 to 6.00 | 4.00 to 5.00 | 128 to 129 °C | < 4.00 |  | 75% at 100 μM |  |  |  |  |  |  | 
O=C(O)C1CCC(Cn2c(-c3ccccc3)n[nH]c2=S)CC1 (stereo not drawn) [Compound 34, 4-[(3-phenyl-5-sulfanylidene-4,5-dihydro-1H-1,2,4-triazol-4-yl)methyl]cyclohexane-1-carboxylic acid] |  |  | < 4.00 | 207 to 208 °C | < 4.00 |  | 90% at 100 μM |  |  | 75% at 200 μM |  |  |  | 
O=C(O)c1ccccc1CCn1c(C23CC4CC(CC(C4)C2)C3)n[nH]c1=S [Compound 35, 2-{2-[3-(adamantan-1-yl)-5-sulfanylidene-4,5-dihydro-1H-1,2,4-triazol-4-yl]ethyl}benzoic acid] |  | 5.00 to 6.00 | < 4.00 | > 250 °C | < 4.00 |  | 55% at 100 μM |  |  |  |  |  |  | 
O=C1OC(Cn2c(-c3ccccc3)n[nH]c2=S)c2ccccc21 (stereo not drawn) [Compound 37, 5-Phenyl-4-[(3-phthalideyl)methyl]-2,4-dihydro-1,2,4-triazole-3-thione] |  | < 4.00 | < 4.00 |  |  | > 6.00 |  |  |  |  | 50% at 100 μM | 3 log2 dilutions | 3 log2 dilutions | 
O=C(O)CCCCCn1c(-c2ccccc2)n[nH]c1=S [Compound 45, 6-(3-Phenyl-5-sulfanylidene-4,5-dihydro-1H-1,2,4-triazol-4-yl)hexanoic acid] |  | > 6.00 | < 4.00 | 136 to 137 °C |  |  | 85% at 100 μM |  |  |  | 55% at 100 μM |  |  | 
O=C(O)C1CCCC(n2c(-c3ccccc3)n[nH]c2=S)C1 (stereo not drawn) [Compound 47, 3-(3-Phenyl-5-sulfanylidene-4,5-dihydro-1H-1,2,4-triazol-4-yl)cyclohexane-1-carboxylic acid] |  |  | < 4.00 | 234 to 235 °C | < 4.00 |  | 70% at 100 μM |  |  |  |  |  |  | 60% at 100 μM
[N-]=[N+]=NCCn1c(-c2ccccc2)n[nH]c1=S [Compound 49, 4-(2-Azidoethyl)-3-phenyl-4,5-dihydro-1H-1,2,4-triazole-5-thione] |  | < 4.00 |  | 108 to 109 °C | < 4.00 |  |  |  | 90% at 200 μM |  |  |  |  | 
O=C(O)CCCn1c(-c2ccc3ccccc3n2)n[nH]c1=S [Compound 50, 4-[3-(Quinolin-2-yl)-5-sulfanylidene-4,5-dihydro-1H-1,2,4-triazol-4-yl]butanoic acid] |  |  | < 4.00 | 238 to 239 °C |  |  | 85% at 100 μM | 50% at 200 μM |  | 80% at 200 μM |  |  |  | 

Reference: US20220000841A1, “INHIBITORS OF METALLO-BETA-LACTAMASES” (CENTRE NATIONAL DE LA RECHERCHE SCIENTIFIQUE, priority 2018, published 2022)
